Source: PMC12502564, “Evaluation of LLM-generated peptide as foundation template for discovery of effective encrypted AMPs against clinical superbugs” (Microbiology Spectrum, 2025)
No end group written: not given here.

Assays:
[1] = test system: CRAB; assay: MBC determination, MBC/MIC ratio; type: cell-based, carbapenem-resistant Acinetobacter baumannii; details: MBC/MIC ≤4 is considered bactericidal
Description: The MBC was determined using the microdilution broth method described above for MIC determination. After identifying the clear wells (no growth), 10 µL of the liquid from these wells was transferred and spread on a nutrient agar plate. The plate was incubated at 37°C for 18–24 h. […] The lowest concentration with no visible growth was considered the MBC.

[2] = test system: MRSA 2210187; details: 10% fetal bovine serum, room temperature, 1–6 h, then MIC assay, triplicate
Description: For serum sensitivity experiments, the peptide to be tested was incubated in 10% fetal bovine serum at room temperature for 1–6 h. After deactivation, the MICs of peptides against CRAB 2210186 and MRSA 2210187 were measured using the MIC assay. All experiments were performed in triplicate to ensure reliability.

[3] = test system: CRAB; assay: Outer membrane permeability assay (NPN); type: cell-based, carbapenem-resistant Acinetobacter baumannii; details: 10^8 CFU mL^−1
Description: NPN binds phospholipids in the periplasmic space, so NPN assay was carried out to analyze the effect of AMPs on the outer membrane permeabilization of bacteria ([65]). After CRAB was grown to the exponential phase, bacteria cells were harvested and washed three times in washing buffer of 5 mM glucose and 5 mM HEPES (1:1, pH = 7.2) and then re-adjusted to 10^8 CFU mL^−1 in same buffer. Bacterial suspensions (150 µL/well) were loaded into black-walled, clear-bottom 96-well plates with lids. Following bacterial loading, 50 µL of 10 µM NPN was introduced into each well, with 30-min pre-incubation for CRAB. Post-incubation fluorescence signals were acquired using 350 nm excitation and 420 nm emission wavelengths. Compounds (10 µL) were then administered to achieve 1 × MIC/10 × MIC -equivalent final concentrations in the dye-loaded bacterial suspensions. Real-time fluorescence monitoring was performed with continuous acquisition during the first 10 min, followed by measurements at 10-min intervals. Negative controls received 10 µL sterile water in lieu of antimicrobial peptides while maintaining equivalent pre-incubation conditions. All experimental conditions were executed with three biological replicates.

[4] = test system: CRAB 2210186; assay: Thigh infection mouse model; type: in vivo, BALB/c mice; details: neutropenic mice, ~1 × 10^6 CFU in thigh, i.p. at 1, 3, 5, 7 h post-infection (PL-15 10 × MIC, 100 µL; polymyxin B 20,000–25,000 U kg^−1 day^−1), n = 8
From the text: The WHO has classified CRAB as a “Critical Priority” pathogen in its Priority Pathogens List, recognizing it as a predominant causative agent of hospital-acquired infections ([2]). This classification reflects CRAB’s global dissemination, high mortality rates, and extreme resistance profiles. Given this critical situation, a thigh infection model was employed to evaluate the in vivo therapeutic efficacy of PL-15 against CRAB. To establish the mouse thigh infection model, mice were pre-treated intraperitoneally with cyclophosphamide 4 days and 1 day prior to bacterial inoculation to induce neutropenia, administered at doses of 150 mg kg^−1 and 100 mg kg^−1, respectively ([51]). Each mouse was then injected with approximately 10^6 colony-forming unit (CFU) of CRAB in the thigh tissue, followed by four intraperitoneal injections of PL-15, polymyxin B, or phosphate-buffered saline (PBS) within 24 h of infection (Fig. 3a).
All animal experiments were performed according to the “Principles of Laboratory Animal Care” (NIH publication No. 86-23, revised 1985) and approved by the Animal Care and Use Committee of Shandong University (LL20240622, Jinan, China). Five-week-old male BALB/c mice were purchased from Beijing Vital River Laboratory Animal Technology Co., Ltd. (Beijing, China) and kept under a 12-hour light/12-hour dark cycle, humidity of 50%, and temperature of 22°C in standard specific pathogen-free individually vented cages.
To establish the mouse thigh infection model, mice were injected intraperitoneally with cyclophosphamide 4 d and 1 d before bacterial administration, at concentrations of 150 and 100 mg kg^−1, respectively, to induce neutropenia ([51]). CRAB 2210186 cells were suspended in sterile PBS, adjusted to a concentration of ~1 × 10^6 CFU per infection site and injected into the right thighs of eight mice per treatment group. PL-15 (10 × MIC, 100 µL), polymyxin B (20,000–25,000 U kg^−1 day^−1) or PBS were administered intraperitoneally at 1, 3, 5, and 7 h post-infection. Mice were euthanized 24 h after infection, and the thigh tissues were aseptically collected, weighed, homogenized, serially diluted in PBS, and plated onto solid MCA. The CFU of CRAB 2210186 per thigh was calculated by plating dilutions of the thigh homogenates (0.25 g of thigh tissue in 10 mL sterile PBS) on agar plates and counting colonies.

[5] = test system: S. aureus ATCC25923; type: cell-based, Staphylococcus aureus
Description: The MIC of all peptides was determined using the microdilution broth method in a 96-well plate. Peptides were dissolved in the DMSO with an initial concentration of 12,800 µg mL^−1. And cells of eight strains were separately suspended in the MHB at a density of approximately 10^5 CFU mL^−1. In the first column of the 96-well plate, 16 µL of peptide and 184 µL of MHB were added to each well to achieve a final concentration of 1,024 µg mL^−1. One-hundred microliters of MHB was added to each of the remaining wells. Then the first column of liquid was mixed well and diluted to the 12th column using the twofold dilution method. One-hundred microliters of prepared bacterial solution was added to all wells, and the 96-well plate was incubated at 37°C for 18–24 h. The MIC was defined as the concentration of the peptide in the well just preceding the first well showing visible turbidity. All experiments were performed in triplicate to ensure reliability.

[6] = test system: sheep red blood cells; assay: Hemolysis test; type: cell-based; details: 4% sheep red blood cell suspension in PBS, 37°C, 1 h, OD 450 nm, log2-transformed
Description: Freshly collected sheep red blood cells, provided by Solarbio (Beijing, China), were washed three times with PBS to prepare a red blood cell suspension (2,000 rpm). Subsequently, the resulting red blood cells were suspended in 1 × PBS buffer and adjusted to a 4% red blood cell suspension. In a 96-well plate, perform twofold serial dilutions of the test peptides in 1 × PBS to final concentrations of 512, 256, 128, 64, 32, 16, 8, 4, 2, 1, 0.5, and 0.25 µg mL^−1 in each well. Use Triton X-100 as a positive control and 1 × PBS buffer as a negative control. Take 100 µL of red blood cell solution and 100 µL of peptide solutions with different concentration gradients and control solutions, add them to a new 96-well plate, and incubate at 37°C for 1 h. Subsequently, the 96-well plate was centrifuged at 4,000 rpm for 10 min, and the supernatant was collected into a 96-well plate for later use. Then the absorbance was measured at a wavelength of 450 nm using a microplate reader. All experiments were repeated in three parallel groups and averaged. The hemolysis rate was calculated by the following formula and the IC50 value of each AMPs was calculated by online tools: https://www.aatbio.com/tools/ic50-calculator.
(1) Hemolysis rate (%)=OD(AMP)− OD(PBS)/OD(TritonX−100)− OD(PBS)×100%

Sequence: WLKRILKWIGNKLKW [PL-15]
- bactericidal classification by MBC/MIC ratio [1]: bactericidal effects
- fold change in MIC after incubation in serum [2]: maximum twofold increase
- NPN fluorescence (outer membrane permeability) ([3]; 1 × MIC): marginal increase in fluorescence intensity
- NPN fluorescence (outer membrane permeability) ([3]; 10 × MIC): rapid and significant increase in fluorescence intensity
- reduction of bacterial load compared to the PBS control group ([4]; 24 h): two orders of magnitude
- bacteria eradicated in the thigh tissue within 24 h [4]: over 97%
- MIC [5]: lower than 11 µg mL^−1
- log2IC50 (50% hemolytic concentration) [6]: ≥ 3
